Structures can show the parent of a compound that is named as a salt. Where two headings read alike, the source gives them in different places.
Columns and labels:
P. aeruginosa GN10362 = test: MIC; details: Pseudomonas aeruginosa, GN10362
P. maltophilia OF247 = test: MIC; details: Stenotrophomonas maltophilia, Table 2, sodium salt
K. pneumoniae 4at521 = test: MIC; details: Klebsiella pneumoniae, 4AT521
P. aeruginosa 4au542 = test: MIC; details: Pseudomonas aeruginosa, 4AU542, P. aeruginosa 4au542; Table 2, sodium salt
C. freundii 1U589 = test: MIC; details: Citrobacter freundii, 1U589
S. marcescens GN10857 = test: MIC; details: Serratia marcescens, GN10857, S. marcescens GN10857; Table 2, sodium salt
E. colacae GN7471 = test: MIC; details: Table 2, sodium salt
C. freundii 5D60-1 = test: MIC; details: Citrobacter freundii, 5D601
P. vulgaris GN7919 = test: MIC; details: Proteus vulgaris, GN7919
E. cloacae 1V25 = test: MIC; details: Enterobacter cloacae
C. freundii 1R524 = test: MIC; details: Citrobacter freundii, 1R524
E. cloacae 5D52-2 = test: MIC; details: Enterobacter cloacae, 5D522
A. calcoaceticu OF1063 = test: MIC; type: cell-based; details: Table 2, sodium salt
Description: (§1) The minimum inhibition concentrations (MIC) of the compounds obtained in Example 1 and Example 2 were measured according to the standard method of Japanese Chemotherapy Association.

E. coli NIHJ JC-2 = test: MIC; type: cell-based; details: Escherichia coli, NIHJJC2, Table 2, sodium salt
Description: as §1

A. xylosoxidans OF1001 = test: MIC; type: cell-based; details: Achromobacter xylosoxidans, Table 2, sodium salt
Description: as §1

[1] = central and tissue distribution volume in Macaco (parenteral, HPLC); type: in vivo; details: monkey, blood, 20 mg/kg, 20 mg/kg parenteral, sodium salt
Description: 20 mg/kg of the compound obtained in Example 1 was administered parenterally to Macaco and a central distribution volume and a tissue distribution volume were calculated by their concentrations in blood measured with time.
The concentration of the compound was measured according to HPLC method. Microbondapack C18 (trade name, produced by Waters Co.) was used as a column and 8% acetonitrile-2% tetrahydrofuran-0.2% phosphoric acid was used as a solvent.

C. freundii 1R523 = test: MIC; details: Citrobacter freundii, 1R523
C. freundii 1R526 = test: MIC; details: Citrobacter freundii, 1R526
P. aeruginosa 5D58-1 = test: MIC; details: Pseudomonas aeruginosa, 5D581, P. aeruginosa 5D58-1; Table 2, sodium salt
C. freundii GN7391 = test: MIC; details: Citrobacter freundii, GN7391, C. freundii GN7391
C. freundii 1R527 = test: MIC; details: Citrobacter freundii, 1R527
E. cloacae 5D63-2 = test: MIC; details: Enterobacter cloacae, 5D632
S. aureus Smith = test: MIC; details: Staphylococcus aureus, Table 2, sodium salt
E. coli ML4707 = test: MIC; details: Escherichia coli, ML4707, E. coli ML4707; Table 2, sodium salt
E. cloacae 1Y247 = test: MIC; type: cell-based; details: Enterobacter cloacae, Table 3, sodium salt, read-out: MIC
Description: The minimum inhibition concentrations (MIC) of the compounds obtained in the respective examples described above were measured according to the standard method of Japanese Chemotherapy Association.

E. coli GN5482 = test: MIC; details: Escherichia coli, GN5482, E. coli GN5482; Table 2, sodium salt
E. cloacae 908RN = test: MIC; details: Enterobacter cloacae
P. cepacia OF189 = test: MIC; details: Burkholderia cepacia, OF189, P. cepacia OF189; Table 2, sodium salt
C. freundii 1U692 = test: MIC; details: Citrobacter freundii, 1U692

Q: What does the source list for CC(C)(ON=C(C(=O)NC1C(=O)N2C(C(=O)O)=C(COC(N)=O)CSC12)c1csc(N)n1)C(=O)NNC(=O)c1ccc(O)c(O)c1 (centres unmarked) [Example 1, 7-{2-[2-amino-1,3-thiazol-4-yl]-2-[1-(3-(3,4-dihydroxybenzoyl)carbazoyl)-1-methylethoxyimino]acetamide}-3-carbamoyloxymethyl-3-cephem-4-carboxylic acid.hydrochloride]?
A: MIC (P. aeruginosa GN10362): 0.05 µg/mL; MIC (P. maltophilia OF247): 0.78 µg/mL; MIC (K. pneumoniae 4at521): 0.012 µg/mL; MIC (P. aeruginosa 4au542): 0.05 µg/mL; MIC (C. freundii 1U589): 12.5 µg/mL; MIC (S. marcescens GN10857): 0.78 µg/mL; MIC (E. colacae GN7471): 25 µg/mL; MIC (C. freundii 5D60-1): 50 µg/mL; MIC (P. vulgaris GN7919): 3.13 µg/mL; MIC (E. cloacae 1V25): 50 µg/mL; MIC (C. freundii 1R524): 12.5 µg/mL; MIC (E. cloacae 5D52-2): 25 µg/mL; MIC (A. calcoaceticu OF1063): 3.13 µg/mL; MIC (E. coli NIHJ JC-2): 0.1 µg/mL; MIC (A. xylosoxidans OF1001): 1.56 µg/mL; Vd ([1]; read-out: Central distribution volume): 0.144 L/kg; Vd ([1]; read-out: Tissue distribution volume): 0.295 L/kg; MIC (C. freundii 1R523): 25 µg/mL; MIC (C. freundii 1R526): 25 µg/mL; MIC (P. aeruginosa 5D58-1): 0.2 µg/mL; MIC (C. freundii GN7391; Table 2, sodium salt): > 100 µg/mL; MIC (C. freundii GN7391; Table 3, sodium salt): > 100 µg/mL; MIC (C. freundii 1R527): 12.5 µg/mL; MIC (E. cloacae 5D63-2): 50 µg/mL; MIC (S. aureus Smith): 6.26 µg/mL; MIC (E. coli ML4707): 0.025 µg/mL; MIC (E. cloacae 1Y247): > 100 µg/mL; MIC (E. coli GN5482): 1.56 µg/mL; MIC (E. cloacae 908RN; E. cloacae 908RN, Table 3, sodium salt): > 100 µg/mL; MIC (E. cloacae 908RN; E. colacae 908RN, Table 2, sodium salt): > 100 µg/mL; MIC (P. cepacia OF189): 0.025 µg/mL; MIC (C. freundii 1U692): 25 µg/mL

From patent US4966900A, “Cephalosporin β-lactam compound and medicinal composition” (priority 1986, dated 1990)
